For 20 molecules, inhibition results are on record in patent US9115137B2, “2,3,4,5-tetrahydro-1H-pyrido[4,3-B]indole compounds and methods of use thereof” (priority 2008, dated 2015).

For assay [1], the target named is T1, human recombinant histamine H1 receptor (Homo sapiens, UniProt P35367).
T1 construct: expressed in transfected cells; host or cells: CHO cells
Description: Histamine H1 radioligand binding ([3H]Pyrilamine). As to conditions: compound at 1 μM; CHO cells; read-out: Histamine Binding (1 μM) H1, percent inhibition of specific binding. The method, then:
To evaluate in radioligand binding assays the activity of compounds of the invention, human recombinant histamine H1 receptor expressed in Chinese hamster ovary (CHO) cells (De Backer, M. D. et al., Biochem. Biophys. Res. Comm. 197(3):1601, 1993) in a modified Tris-HCl buffer (50 mM Tris-HCl, pH 7.4, 2 mM MgCl2, 100 mM NaCl, 250 mM Sucrose) was used. Compounds of the invention were incubated with 1.2 nM [^3H]Pyrilamine for 180 minutes at 25° C. Non-specific binding was estimated in the presence of 1 μM pyrilamine. Receptor proteins were filtered and washed, the filters were then counted to determine [^3H]Pyrilamine specifically bound. Compounds were screened at 1 μM, using 1% DMSO as vehicle. Biochemical assay results are presented as the percent inhibition of specific binding in Table 5.

Assay [2] has as its target T2, human recombinant adrenergic α2B receptor (Homo sapiens, UniProt P18089).
T2 construct: expressed in transfected cells; host or cells: CHO-K1 cells
T2 sequence (P18089 1-450): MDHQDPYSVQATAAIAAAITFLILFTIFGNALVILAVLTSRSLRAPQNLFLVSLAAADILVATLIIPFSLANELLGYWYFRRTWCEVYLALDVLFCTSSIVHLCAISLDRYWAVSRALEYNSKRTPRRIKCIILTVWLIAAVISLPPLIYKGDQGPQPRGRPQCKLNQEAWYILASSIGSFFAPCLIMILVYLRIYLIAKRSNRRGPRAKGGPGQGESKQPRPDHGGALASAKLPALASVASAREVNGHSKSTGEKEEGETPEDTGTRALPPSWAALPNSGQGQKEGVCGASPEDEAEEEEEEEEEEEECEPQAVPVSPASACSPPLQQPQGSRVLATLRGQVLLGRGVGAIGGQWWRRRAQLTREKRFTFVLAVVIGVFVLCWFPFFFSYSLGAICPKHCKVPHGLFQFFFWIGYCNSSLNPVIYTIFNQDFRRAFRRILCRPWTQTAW
As to the kind of experiment: Adrenergic α2B radioligand binding ([3H]Rauwolscine). To be noted: compound at 1 μM; CHO-K1 cells; read-out: Adrenergic (1 μM) α2B, percent inhibition of specific binding. As to the method: To evaluate in radioligand binding assays the activity of compounds of the invention, human recombinant adrenergic α2B receptor expressed in Chinese hamster ovary (CHO-K1) cells (Uhlen S et al. Eur. J. Pharmacol. 343(1):93, 1998) in a modified Tris-HCl buffer (50 mM Tris-HCl, pH 7.4, 12.5 mM MgCl2, 1 mM EDTA, 0.2% BSA) was used. Compounds of the invention were incubated with 2.5 nM [3H]Rauwolscine for 60 minutes at 25° C. Non-specific binding was estimated in the presence of 10 μM Prozosin. Receptor proteins were filtered and washed, the filters were then counted to determine [^3H]Rauwolscine specifically bound. Compounds were screened at 1 μM or lower, using 1% DMSO as vehicle. Biochemical assay results are presented as the percent inhibition of specific binding in Table 6.

The target in assay [3] is T3, human recombinant adrenergic α1D receptor (Homo sapiens, UniProt P25100).
T3 construct: expressed in transfected cells; host or cells: HEK-293 cells
T3 sequence (P25100 1-572): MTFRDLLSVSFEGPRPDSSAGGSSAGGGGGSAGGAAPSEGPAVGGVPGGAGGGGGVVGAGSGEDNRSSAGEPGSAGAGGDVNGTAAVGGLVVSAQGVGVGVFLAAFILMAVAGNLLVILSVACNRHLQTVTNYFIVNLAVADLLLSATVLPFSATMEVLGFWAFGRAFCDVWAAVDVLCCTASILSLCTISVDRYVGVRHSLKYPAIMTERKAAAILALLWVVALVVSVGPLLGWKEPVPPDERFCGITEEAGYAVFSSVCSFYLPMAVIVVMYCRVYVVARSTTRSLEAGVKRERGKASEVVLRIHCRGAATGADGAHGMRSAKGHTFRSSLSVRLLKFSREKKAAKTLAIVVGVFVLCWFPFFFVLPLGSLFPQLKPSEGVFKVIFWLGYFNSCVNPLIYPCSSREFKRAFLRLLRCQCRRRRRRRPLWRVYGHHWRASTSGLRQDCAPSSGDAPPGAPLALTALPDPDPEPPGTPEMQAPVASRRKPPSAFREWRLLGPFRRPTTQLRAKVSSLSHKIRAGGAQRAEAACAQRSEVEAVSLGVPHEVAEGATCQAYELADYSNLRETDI
Description: Adrenergic α1D radioligand binding ([3H]Prozosin). As to conditions: compound at 1 μM; HEK-293 cells; read-out: Adrenergic (1 μM) α1D, percent inhibition of specific binding. The method, then:
To evaluate in radioligand binding assays the activity of compounds of the invention, human recombinant adrenergic α1D receptor expressed in human embryonic kidney (HEK-293) cells (Kenny, B. A. et al. Br. J. Pharmacol. 115(6):981, 1995) in a 50 mM Tris-HCl buffer, pH 7.4, was used. Compounds of invention were incubated with 0.6 nM [^3H]Prozosin for 60 minutes at 25° C. Non-specific binding was estimated in the presence of 10 μM phentolamine. Receptor proteins were filtered and washed, the filters were then counted to determine [^3H]Prozosin specifically bound. Compounds were screened at 1 μM or lower, using 1% DMSO as vehicle. Biochemical assay results are presented as the percent inhibition of specific binding in Table 6.

T1 sequence (P35367 whole entry): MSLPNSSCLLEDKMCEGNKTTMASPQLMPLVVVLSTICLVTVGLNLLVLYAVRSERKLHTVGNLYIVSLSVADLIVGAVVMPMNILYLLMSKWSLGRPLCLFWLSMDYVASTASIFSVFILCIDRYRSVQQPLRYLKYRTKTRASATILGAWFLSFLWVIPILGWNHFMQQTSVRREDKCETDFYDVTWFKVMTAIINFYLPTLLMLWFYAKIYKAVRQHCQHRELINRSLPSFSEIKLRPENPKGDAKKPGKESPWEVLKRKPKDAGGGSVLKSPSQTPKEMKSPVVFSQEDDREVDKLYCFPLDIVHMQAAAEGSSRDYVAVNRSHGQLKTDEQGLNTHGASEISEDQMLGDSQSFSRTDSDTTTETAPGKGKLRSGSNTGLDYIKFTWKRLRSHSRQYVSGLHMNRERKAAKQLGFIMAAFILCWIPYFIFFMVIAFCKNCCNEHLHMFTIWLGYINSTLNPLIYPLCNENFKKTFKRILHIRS

Regarding `CNC(=O)CCn1c2c(c3cc(C)ccc31)CN(C)CC2` [Compound 1, 3-(1,2,3,4-tetrahydro-2,8-dimethylpyrido[4,3-b]indol-5-yl)-N-methylpropanamide], the inhibition at 1 µM was found to be 34% in assay [1], 51% in assay [2] and 20% in assay [3].

Take `Cc1ccc2c(c1)c1c(n2CC(=O)NCc2ccccc2)CCN(C)C1` [Compound 25, N-benzyl-2-(1,2,3,4-tetrahydro-2,8-dimethylpyrido[4,3-b]indol-5-yl)acetamide]: the figures for the inhibition at 1 µM in assay [1], in assay [2] and in assay [3] were 72%, 38% and 22%, respectively.

On to `Cc1ccc2c(c1)c1c(n2CCC(=O)NC2CCCC2)CCN(C)C1` [Compound 4, N-cyclopentyl-3-(1,2,3,4-tetrahydro-2,8-dimethylpyrido[4,3-b]indol-5-yl)propanamide], for which the inhibition at 1 µM in assay [1] turned out to be 60%; in assay [2], 93%; in assay [3], 64%.

On to `Cc1ccc2c(c1)c1c(n2CCNC(=O)c2ccc(F)cc2Cl)CCN(C)C1` [Compound 63, 2-chloro-4-fluoro-N-(2-(1,2,3,4-tetrahydro-2,8-dimethylpyrido[4,3-b]indol-5-yl)ethyl)benzamide], for which the inhibition at 1 µM in assay [1] came out at 86%; in assay [2], 98%; in assay [3], 56%.

As for `Cc1ccc2c(c1)c1c(n2CCC(=O)NCC2CCCCC2)CCN(C)C1` [Compound 30, N-(cyclohexylmethyl)-3-(1,2,3,4-tetrahydro-2,8-dimethylpyrido[4,3-b]indol-5-yl)propanamide], the inhibition at 1 µM was determined as 18% in assay [1], 104% in assay [2] and 73% in assay [3].

On to `CN1CCc2c(c3cc(Cl)ccc3n2CCC(N)=O)C1` [Compound 67, 3-(8-chloro-1,2,3,4-tetrahydro-2-methylpyrido[4,3-b]indol-5-yl)propanamide], for which the inhibition at 1 µM in assay [1] was 70%; in assay [2], 72%; in assay [3] it was 32%.

On to `C#CCn1c2c(c3cc(C)ccc31)CN(C)CC2` [CD73, 2,8-dimethyl-5-(prop-2-ynyl)-2,3,4,5-tetrahydro-1H-pyrido[4,3-b]indole], for which the inhibition at 1 µM in assay [1] worked out at 96%; in assay [2] it was 101%; in assay [3] it was 57%.

Turning to `Cc1ccc2c(c1)c1c(n2CCO)CCN(C)C1` [CD90, 2-(2,8-dimethyl-3,4-dihydro-1H-pyrido[4,3-b]indol-5(2H)-yl)ethanol], the figures for the inhibition at 1 µM in assay [1], in assay [2] and in assay [3] were 60%, 61% and 23%, respectively.

With `CCOC(=O)Cn1c2c(c3cc(Cl)ccc31)CN(C)CC2` [Compound 10, ethyl 2-(8-chloro-1,2,3,4-tetrahydro-2-methylpyrido[4,3-b]indol-5-yl)acetate], the inhibition at 1 µM in assay [1] was 99%; in assay [2] it was 71%; in assay [3], 50%.

Take `CN1CCc2c(c3cc(Cl)ccc3n2CC(=O)OC(C)(C)C)C1` [Compound 12, tert-butyl 2-(8-chloro-1,2,3,4-tetrahydro-2-methylpyrido[4,3-b]indol-5-yl)acetate]: the inhibition at 1 µM came out at 101% in assay [1], 45% in assay [2] and 13% in assay [3].

Consider `CCNC(=O)Cn1c2c(c3cc(C)ccc31)CN(C)CC2` [Compound 22, N-ethyl-2-(1,2,3,4-tetrahydro-2,8-dimethylpyrido[4,3-b]indol-5-yl)acetamide], for which the inhibition at 1 µM came out at 85% in assay [1], 58% in assay [2] and 23% in assay [3].

`Cc1ccc2c(c1)c1c(n2CC(N)=O)CCN(C)C1` [Compound 64, 2-(1,2,3,4-tetrahydro-2,8-dimethylpyrido[4,3-b]indol-5-yl)acetamide]: the values for the inhibition at 1 µM in assay [1], in assay [2] and in assay [3] were 62%, 40% and 20%, respectively.

For the molecule `CCOC(=O)CCn1c2c(c3cc(C)ccc31)CN(C)CC2` [CD1, ethyl 3-(1,2,3,4-tetrahydro-2,8-dimethylpyrido[4,3-b]indol-5-yl)propanoate], the values for the inhibition at 1 µM in assay [1], in assay [2] and in assay [3] were 101%, 95% and 54%, respectively.

Consider `Cc1ccc2c(c1)c1c(n2CCC(=O)NCc2ccccc2)CCN(C)C1` [Compound 59, N-benzyl-3-(1,2,3,4-tetrahydro-2,8-dimethylpyrido[4,3-b]indol-5-yl)propanamide], for which the inhibition at 1 µM in assay [1] amounted to 60%; in assay [2], 96%; in assay [3] it was 56%.

Regarding `CN1CCc2c(c3cc(Cl)ccc3n2CC(=O)N(C)C)C1` [Compound 48, 2-(8-chloro-1,2,3,4-tetrahydro-2-methylpyrido[4,3-b]indol-5-yl)-N,N-dimethylacetamide], the figures for the inhibition at 1 µM in assay [1], in assay [2] and in assay [3] were 73%, 13% and 10%, respectively.

Regarding `CC(C)OC(=O)CCn1c2c(c3cc(Cl)ccc31)CN(C)CC2` [Compound 17, isopropyl 3-(8-chloro-1,2,3,4-tetrahydro-2-methylpyrido[4,3-b]indol-5-yl)propanoate], the inhibition at 1 µM in assay [1] was 96%; in assay [2], 106%; in assay [3], 73%.

Take `Cc1ccc2c(c1)c1c(n2CCC(=O)O)CCN(C)C1` [CD47, 3-(1,2,3,4-tetrahydro-2,8-dimethylpyrido[4,3-b]indol-5-yl)propanoic acid]: the inhibition at 1 µM in assay [1] stood at 25%; in assay [2] it was 24%; in assay [3] it was 6%.

Take `Cc1ccc2c(c1)c1c(n2CC(=O)Nc2ccc(F)cc2)CCN(C)C1` [Compound 51, N-(4-fluorophenyl)-2-(1,2,3,4-tetrahydro-2,8-dimethylpyrido[4,3-b]indol-5-yl)acetamide]: the inhibition at 1 µM in assay [1] stood at 85%; in assay [2], 82%; in assay [3], 29%.

In the case of `CCCCOC(=O)Cn1c2c(c3cc(Cl)ccc31)CN(C)CC2` [Compound 52, butyl 2-(8-chloro-1,2,3,4-tetrahydro-2-methylpyrido[4,3-b]indol-5-yl)acetate], the inhibition at 1 µM in assay [1] was found to be 98%; in assay [2] it was 89%; in assay [3], 58%.

Regarding `Cc1ccc2c(c1)c1c(n2CCNC(=O)C2CCCNC2)CCN(C)C1` (centres unmarked) [Compound 9, N-(2-(1,2,3,4-tetrahydro-2,8-dimethylpyrido[4,3-b]indol-5-yl)ethyl)piperidine-3-carboxamide], the inhibition at 1 µM in assay [2] came to 25%; in assay [3], 11%.
